{"source": "patent US9505710B2", "about": "(priority 2015, dated 2016)", "biological_target": "BoNT/A LC1-429 (Clostridium botulinum, UniProt P0DPI1)", "sequence (P0DPI1 1-429, added parts left off)": "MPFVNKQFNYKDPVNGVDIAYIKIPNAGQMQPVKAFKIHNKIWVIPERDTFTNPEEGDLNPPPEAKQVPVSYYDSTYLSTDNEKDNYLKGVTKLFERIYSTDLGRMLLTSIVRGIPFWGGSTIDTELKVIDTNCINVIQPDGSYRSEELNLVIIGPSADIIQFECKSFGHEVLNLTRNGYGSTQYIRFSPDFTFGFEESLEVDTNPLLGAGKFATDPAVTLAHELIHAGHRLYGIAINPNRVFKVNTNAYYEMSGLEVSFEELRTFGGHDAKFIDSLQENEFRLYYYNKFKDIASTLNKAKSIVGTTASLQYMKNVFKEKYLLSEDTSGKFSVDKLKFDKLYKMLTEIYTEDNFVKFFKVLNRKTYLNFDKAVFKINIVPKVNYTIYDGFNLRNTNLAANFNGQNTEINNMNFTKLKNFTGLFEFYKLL", "assay": "biochemical", "details": "BoNT/A Ki (nM)", "data": [{"smiles": "CO[C@H](CC(=O)NO)[C@H](Cc1ccc(F)cc1)c1ccc(Br)cc1", "note": "[Example 1-3, (3R,4R)-4-(4-bromophenyl)-5-(4-fluorophenyl)-N-hydroxy-3-methoxypentanamide]", "values": [{"measurement": "Ki", "result": 9.36, "unit": "nM"}]}, {"smiles": "CCO[C@H](CC(=O)NO)[C@H](Cc1ccc(CO)cc1)c1ccc(F)cc1", "note": "[Example 1-9, (3R,4R)-3-ethoxy-4-(4-fluorophenyl)-N-hydroxy-5-(4-(hydroxymethyl)phenyl)pentanamide]", "values": [{"measurement": "Ki", "result": 299, "unit": "nM"}]}, {"smiles": "CO[C@H](CC(=O)NO)[C@H](Cc1ccc(F)cc1C)c1ccc(Br)cc1", "note": "[Example 2-1, (3R,4R)-4-(4-bromophenyl)-5-(4-fluoro-2-methylphenyl)-N-hydroxy-3-methoxypentanamide]", "values": [{"measurement": "Ki", "result": 235, "unit": "nM"}]}, {"smiles": "CO[C@H](CC(=O)NO)[C@H](Cc1ccc(F)c(C)c1)c1ccc(Br)cc1", "note": "[Example 2-2, (3R,4R)-4-(4-bromophenyl)-5-(4-fluoro-3-methylphenyl)-N-hydroxy-3-methoxypentanamide]", "values": [{"measurement": "Ki", "result": 3.4, "unit": "nM"}]}, {"smiles": "CO[C@@H](CC(=O)NO)[C@H](Cc1ccc(F)cc1C)c1ccc(Br)cc1", "note": "[Example 2-3, (3S,4R)-4-(4-bromophenyl)-5-(4-fluoro-2-methylphenyl)-N-hydroxy-3-methoxypentanamide]", "values": [{"measurement": "Ki", "result": 4860, "unit": "nM"}]}, {"smiles": "CO[C@@H](CC(=O)NO)[C@H](Cc1ccc(F)c(C)c1)c1ccc(Br)cc1", "note": "[Example 2-4, (3S,4R)-4-(4-bromophenyl)-5-(4-fluoro-3-methylphenyl)-N-hydroxy-3-methoxypentanamide]", "values": [{"measurement": "Ki", "result": 145, "unit": "nM"}]}, {"smiles": "CCO[C@H](CC(=O)NO)[C@H](Cc1ccc(Cl)cc1)c1ccccc1", "note": "[Example 3-1, (3R,4R)-5-(4-chlorophenyl)-3-ethoxy-N-hydroxy-4-phenylpentanamide]", "values": [{"measurement": "Ki", "result": 15.5, "unit": "nM"}]}, {"smiles": "O=C(CC[C@H](Cc1ccc(Cl)cc1)c1ccccc1)NO", "note": "[Example 3-2]", "values": [{"measurement": "Ki", "result": 2700, "unit": "nM"}]}, {"smiles": "O=C(CC[C@H](Cc1ccc(Cl)cc1)c1ccc(Br)cc1)NO", "note": "[Example 3-3]", "values": [{"measurement": "Ki", "result": 915, "unit": "nM"}]}, {"smiles": "CO[C@H](CC(=O)NO)[C@H](Cc1ccc(Cl)cc1)c1ccc(Cl)cc1", "note": "[Example 3-4, (3R,4R)-4,5-bis(4-chlorophenyl)-N-hydroxy-3-methoxypentanamide]", "values": [{"measurement": "Ki", "result": 4.8, "unit": "nM"}]}, {"smiles": "CO[C@H](CC(=O)NO)[C@H](Cc1ccc(Cl)cc1)c1ccc(F)cc1", "note": "[Example 3-5, (3R,4R)-5-(4-chlorophenyl)-4-(4-fluorophenyl)-N-hydroxy-3-methoxypentanamide]", "values": [{"measurement": "Ki", "result": 5.2, "unit": "nM"}]}, {"smiles": "CCO[C@H](CC(=O)NO)[C@H](Cc1ccc(Cl)cc1)c1ccc(Br)cc1", "note": "[Example 3-6, (3R,4R)-4-(4-bromophenyl)-5-(4-chlorophenyl)-3-ethoxy-N-hydroxypentanamide]", "values": [{"measurement": "Ki", "result": "2 ± 0.42", "unit": "nM"}]}, {"smiles": "CCO[C@@H](CC(=O)NO)[C@H](Cc1ccc(Cl)cc1)c1ccc(Br)cc1", "note": "[Example 3-7, (3S,4R)-4-(4-bromophenyl)-5-(4-chlorophenyl)-3-ethoxy-N-hydroxypentanamide]", "values": [{"measurement": "Ki", "result": 73, "unit": "nM"}]}, {"smiles": "CO[C@H](CC(=O)NO)[C@H](Cc1ccc(Cl)cc1)c1ccc(Br)cc1", "note": "[Example 3-8, (3R,4R)-4-(4-bromophenyl)-5-(4-chlorophenyl)-N-hydroxy-3-methoxypentanamide]", "values": [{"measurement": "Ki", "result": 1.75, "unit": "nM"}]}, {"smiles": "C=Cc1ccc([C@@H](Cc2ccc(Cl)cc2)[C@@H](CC(=O)NO)OCC)cc1", "note": "[Example 3-9, (3R,4R)-5-(4-chlorophenyl)-3-ethoxy-N-hydroxy-4-(4-vinylphenyl)pentanamide]", "values": [{"measurement": "Ki", "result": 3.2, "unit": "nM"}]}, {"smiles": "CCO[C@H](CC(=O)NO)[C@H](Cc1ccc(Cl)cc1)c1ccc(CO)cc1", "note": "[Example 3-10, (3R,4R)-5-(4-chlorophenyl)-3-ethoxy-N-hydroxy-4-(4-(hydroxymethyl)phenyl)pentanamide]", "values": [{"measurement": "Ki", "result": 2.7, "unit": "nM"}]}, {"smiles": "CO[C@H](CC(=O)NO)[C@H](Cc1ccc(Cl)cc1)c1ccc(CO)cc1", "note": "[Example 3-11, (3R,4R)-5-(4-chlorophenyl)-N-hydroxy-4-(4-(hydroxymethyl)phenyl)-3-methoxypentanamide]", "values": [{"measurement": "Ki", "result": 9.7, "unit": "nM"}]}, {"smiles": "CCO[C@H](CC(=O)NO)[C@H](Cc1ccc(Cl)cc1)c1ccc(C2(C)CO2)cc1", "note": "(stereo partly drawn) [Example 3-12, (3R,4R)-5-(4-chlorophenyl)-3-ethoxy-N-hydroxy-4-(4-(2-methyloxiran-2-yl)phenyl)pentanamide]", "values": [{"measurement": "Ki", "result": 9.6, "unit": "nM"}]}, {"smiles": "CCCCOCc1ccc([C@@H](Cc2ccc(Cl)cc2)[C@@H](CC(=O)NO)OC)cc1", "note": "[Example 3-13]", "values": [{"measurement": "Ki", "result": 24.9, "unit": "nM"}]}, {"smiles": "CCO[C@H](CC(=O)NO)[C@H](Cc1ccc(Cl)cc1)c1ccc(COCOC)cc1", "note": "[Example 3-14]", "values": [{"measurement": "Ki", "result": 21.2, "unit": "nM"}]}, {"smiles": "CCO[C@H](CC(=O)NO)[C@H](Cc1ccc(Cl)cc1)c1ccc(COCOCCOC)cc1", "note": "[Example 3-15]", "values": [{"measurement": "Ki", "result": 30, "unit": "nM"}]}, {"smiles": "CCO[C@H](CC(=O)NO)[C@H](Cc1ccc(Cl)cc1)c1ccc(CN2CCOCC2)cc1", "note": "[Example 3-16, (3R,4R)-5-(4-chlorophenyl)-3-ethoxy-N-hydroxy-4-(4-(morpholinomethyl)phenyl) pentanamide]", "values": [{"measurement": "Ki", "result": "10.1 ± 2.4", "unit": "nM"}]}, {"smiles": "CCO[C@H](CC(=O)NO)[C@H](Cc1ccc(Cl)cc1)c1ccc(CN2CCN(C(=O)OC(C)(C)C)CC2)cc1", "note": "[Example 3-17, tert-butyl 4-(4-((2R,3R)-1-(4-chlorophenyl)-3-ethoxy-5-(hydroxyamino)-5-oxopentan-2-yl)benzyl)piperazine-1-carboxylate]", "values": [{"measurement": "Ki", "result": 8.5, "unit": "nM"}]}, {"smiles": "CCO[C@H](CC(=O)NO)[C@H](Cc1ccc(Cl)cc1)c1ccc(CN2CCNCC2)cc1", "note": "[Example 3-18, (3R,4R)-5-(4-chlorophenyl)-3-ethoxy-N-hydroxy-4-(4-(piperazin-1-ylmethyl)phenyl)pentanamide]", "values": [{"measurement": "Ki", "result": "13.5 ± 2.8", "unit": "nM"}]}, {"smiles": "CCO[C@H](CC(=O)NO)[C@H](Cc1ccc(Cl)cc1)c1ccc(CN2CCCCC2)cc1", "note": "[Example 3-19, (3R,4R)-5-(4-chlorophenyl)-3-ethoxy-N-hydroxy-4-(4-(piperidin-1-ylmethyl)phenyl)pentanamide]", "values": [{"measurement": "Ki", "result": 19.5, "unit": "nM"}]}, {"smiles": "CO[C@H](CC(=O)NO)[C@H](Cc1ccc(Cl)cc1)c1ccc(CN2CCCCC2)cc1", "note": "[Example 3-20, (3R,4R)-5-(4-chlorophenyl)-N-hydroxy-3-methoxy-4-(4-(piperidin-1-ylmethyl)phenyl)pentanamide]", "values": [{"measurement": "Ki", "result": 37, "unit": "nM"}]}, {"smiles": "CCO[C@H](CC(=O)NO)[C@H](Cc1ccc(Cl)cc1)c1ccc(N(C)CCO)cc1", "note": "[Example 3-21, (3R,4R)-5-(4-chlorophenyl)-3-ethoxy-N-hydroxy-4-(4-((2-hydroxyethyl)(methyl)amino)phenyl)pentanamide]", "values": [{"measurement": "Ki", "result": 8.5, "unit": "nM"}]}, {"smiles": "CCO[C@H](CC(=O)NO)[C@H](Cc1ccc(Cl)cc1)c1ccc(N2CCNCC2)cc1", "note": "[Example 3-22, (3R,4R)-5-(4-chlorophenyl)-3-ethoxy-N-hydroxy-4-(4-(piperazin-1-yl)phenyl)pentanamide]", "values": [{"measurement": "Ki", "result": 13.5, "unit": "nM"}]}, {"smiles": "CCO[C@H](CC(=O)NO)[C@H](Cc1ccc(Cl)cc1)c1ccc(N2CCOCC2)cc1", "note": "[Example 3-23, (3R,4R)-5-(4-chlorophenyl)-3-ethoxy-N-hydroxy-4-(4-morpholinophenyl)pentanamide]", "values": [{"measurement": "Ki", "result": 10, "unit": "nM"}]}, {"smiles": "CCO[C@H](CC(=O)NO)[C@H](Cc1ccc(Cl)cc1)c1ccc(-c2cccn2C(=O)OC(C)(C)C)cc1", "note": "[Example 3-24, tert-butyl 2-(4-((2R,3R)-1-(4-chlorophenyl)-3-ethoxy-5-(hydroxyamino)-5-oxopentan-2-yl)phenyl)-1H-pyrrole-1-carboxylate]", "values": [{"measurement": "Ki", "result": 8.8, "unit": "nM"}]}, {"smiles": "CCO[C@H](CC(=O)NO)[C@H](Cc1ccc(Cl)cc1)c1ccc(-c2ccc[nH]2)cc1", "note": "[Example 3-25, (3R,4R)-4-(4-(1H-pyrrol-2-yl)phenyl)-5-(4-chlorophenyl)-3-ethoxy-N-hydroxypentanamide]", "values": [{"measurement": "Ki", "result": 8, "unit": "nM"}]}, {"smiles": "CCO[C@H](CC(=O)NO)[C@H](Cc1ccc(Cl)cc1)c1ccc(-c2cncnc2)cc1", "note": "[Example 3-26, (3R,4R)-5-(4-chlorophenyl)-3-ethoxy-N-hydroxy-4-(4-(pyrimidin-5-yl)phenyl)pentanamide]", "values": [{"measurement": "Ki", "result": 3.7, "unit": "nM"}]}, {"smiles": "CCO[C@H](CC(=O)NO)[C@H](Cc1ccc(Cl)cc1)c1ccc(-c2cnc(N(C)C)nc2)cc1", "note": "[Example 3-27, (3R,4R)-5-(4-chlorophenyl)-4-(4-(2-(dimethylamino)pyrimidin-5-yl)phenyl)-3-ethoxy-N-hydroxypentanamide]", "values": [{"measurement": "Ki", "result": 5.3, "unit": "nM"}]}, {"smiles": "CCO[C@H](CC(=O)NO)[C@H](Cc1ccc(Cl)cc1)c1ccc(-c2c(C)nn(C)c2C)cc1", "note": "[Example 3-28, (3R,4R)-5-(4-chlorophenyl)-3-ethoxy-N-hydroxy-4-(4-(1,3,5-trimethyl-1H-pyrazol-4-yl)phenyl)pentanamide]", "values": [{"measurement": "Ki", "result": 3.7, "unit": "nM"}]}, {"smiles": "CCO[C@H](CC(=O)NO)[C@H](Cc1ccc(Cl)cc1)c1ccc(-n2ccnc2)cc1", "note": "[Example 3-29, (3R,4R)-4-(4-(1H-imidazol-1-yl)phenyl)-5-(4-chlorophenyl)-3-ethoxy-N-hydroxypentanamide]", "values": [{"measurement": "Ki", "result": 3.6, "unit": "nM"}]}, {"smiles": "CCO[C@H](CC(=O)NO)[C@H](Cc1ccc(Cl)cc1)c1ccc(-c2ccncc2)cc1", "note": "[Example 3-30, (3R,4R)-5-(4-chlorophenyl)-3-ethoxy-N-hydroxy-4-(4-(pyridin-4-yl)phenyl)pentanamide]", "values": [{"measurement": "Ki", "result": 4.5, "unit": "nM"}]}, {"smiles": "CCO[C@H](CC(=O)NO)[C@H](Cc1ccc(Cl)cc1)c1ccc(C(=O)NO)cc1", "note": "[Example 4-1, 4-((2R,3R)-1-(4-chlorophenyl)-3-ethoxy-5-(hydroxyamino)-5-oxopentan-2-yl)-N-hydroxybenzamide]", "values": [{"measurement": "Ki", "result": 10.5, "unit": "nM"}]}, {"smiles": "CCCN(CCC)C(=O)c1ccc([C@@H](Cc2ccc(Cl)cc2)[C@@H](CC(=O)NO)OCC)cc1", "note": "[Example 4-2, 4-((2R,3R)-1-(4-chlorophenyl)-3-ethoxy-5-(hydroxyamino)-5-oxopentan-2-yl)-N,N-dipropylbenzamide]", "values": [{"measurement": "Ki", "result": 3.9, "unit": "nM"}]}, {"smiles": "CCO[C@H](CC(=O)NO)[C@H](Cc1ccc(Cl)cc1)c1ccc(C(=O)N2CCCCC2)cc1", "note": "[Example 4-3, (3R,4R)-5-(4-chlorophenyl)-3-ethoxy-N-hydroxy-4-(4-(piperidine-1-carbonyl)phenyl)pentanamide]", "values": [{"measurement": "Ki", "result": "4.3 ± 2", "unit": "nM"}]}, {"smiles": "CCO[C@H](CC(=O)NO)[C@H](Cc1ccc(Cl)cc1)c1ccc(C(=O)N(C)CCO)cc1", "note": "[Example 4-4, 4-((2R,3R)-1-(4-chlorophenyl)-3-ethoxy-5-(hydroxyamino)-5-oxopentan-2-yl)-N-(2-hydroxyethyl)-N-methylbenzamide]", "values": [{"measurement": "Ki", "result": "9.8 ± 3.7", "unit": "nM"}]}, {"smiles": "CCO[C@H](CC(=O)NO)[C@H](Cc1ccc(Cl)cc1)c1ccc(C(=O)N2CCOCC2)cc1", "note": "[Example 4-5, (3R,4R)-5-(4-chlorophenyl)-3-ethoxy-N-hydroxy-4-(4-(morpholine-4-carbonyl)phenyl)pentanamide]", "values": [{"measurement": "Ki", "result": "5.8 ± 1.1", "unit": "nM"}]}]}
